≈ marks a conversion by molar mass, not a printed value.

From patent publication US20040087633A1, “Methylidene oxazolidinone compound and preparation method thereof” (Korea Institute of Science and Technology, priority 2002, published 2004) come the findings set out here.

Assay in all cases: Anti-microbial activity test in vitro (agar dilution MIC)
One test concerns CRSA C1062. It counts as cell-based, Staphylococcus aureus. Conditions: CRSA C1062; Agar Dilution method, Mueller Hinton Agar, 18 hours at 37° C. The method in brief:
(§1)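 Agar dilution on Mueller Hinton agar with twofold serial compound dilutions; strains grown 18 h at 37 °C. MIC (μg/ml) read visually.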

The next test relates to CRSA C6043. It is filed as cell-based, Staphylococcus aureus. Conditions: CRSA C6043; Agar Dilution method, Mueller Hinton Agar, 18 hours at 37° C. Summed up: as §1
A further test deals with MRSA C2207. It is filed as cell-based, Staphylococcus aureus. Conditions: MRSA C2207; Agar Dilution method, Mueller Hinton Agar, 18 hours at 37° C. The method in brief:
as §1

Another test relates to MRSA C5100. It is filed as cell-based, Staphylococcus aureus. Conditions: MRSA C5100; Agar Dilution method, Mueller Hinton Agar, 18 hours at 37° C. Summed up: as §1
Another test deals with MRSA C6068. It counts as cell-based, Staphylococcus aureus. Conditions: MRSA C6068; Agar Dilution method, Mueller Hinton Agar, 18 hours at 37° C. Summed up: as §1
In a further test the test system is MSSA C2214. It is filed as cell-based, Staphylococcus aureus. Conditions: MSSA C2214; Agar Dilution method, Mueller Hinton Agar, 18 hours at 37° C. The method in brief: as §1
A further test has as its system MSSA C7142. It is filed as cell-based, Staphylococcus aureus. Conditions: MSSA C7142; Agar Dilution method, Mueller Hinton Agar, 18 hours at 37° C. The method in brief: as §1
The subject of another test is E. faecalis ATCC29212. It is filed as cell-based. Conditions: E. faecalis ATCC29212; Agar Dilution method, Mueller Hinton Agar, 18 hours at 37° C. Summed up: as §1
The next test relates to E. faecalis C6288. It is filed as cell-based. Conditions: E. faecalis C6288; Agar Dilution method, Mueller Hinton Agar, 18 hours at 37° C. The method in brief: as §1
The test system of the next test is E. faecalis C6291. It is filed as cell-based. Conditions: E. faecalis C6291; Agar Dilution method, Mueller Hinton Agar, 18 hours at 37° C. The method in brief: as §1
The next test deals with E. faecium C2252. It counts as cell-based. Conditions: E. faecium C2252; Agar Dilution method, Mueller Hinton Agar, 18 hours at 37° C. The method in brief: as §1
The test system of a further test is E. faecium C6301. It counts as cell-based. Conditions: E. faecium C6301; Agar Dilution method, Mueller Hinton Agar, 18 hours at 37° C. Summed up:
as §1

Another test concerns S. aureus ATCC 29213. It counts as cell-based. Conditions: Agar Dilution method, Mueller Hinton Agar, 18 hours at 37° C. Summed up:
as §1

The test system of another test is S. epidermidis ATCC12228. It counts as cell-based. Conditions: S. epidermidis ATCC12228; Agar Dilution method, Mueller Hinton Agar, 18 hours at 37° C. The method in brief: as §1
The test system of another test is S. epidermidis C2230. It counts as cell-based. Conditions: S. epidermidis C2230; Agar Dilution method, Mueller Hinton Agar, 18 hours at 37° C. The method in brief:
as §1

A further test deals with S. epidermidis C2235. It is filed as cell-based. Conditions: S. epidermidis C2235; Agar Dilution method, Mueller Hinton Agar, 18 hours at 37° C. Summed up:
as §1

A further test concerns S. pyogenes ATCC8668. It is filed as cell-based. Conditions: S. pyogenes ATCC8668; Agar Dilution method, Mueller Hinton Agar, 18 hours at 37° C. Summed up:
as §1

The test system of a further test is S. pyogenes C6003. It is filed as cell-based. Conditions: S. pyogenes C6003; Agar Dilution method, Mueller Hinton Agar, 18 hours at 37° C. The method in brief: as §1
Another test deals with S. pyogenes C6012. It is filed as cell-based. Conditions: S. pyogenes C6012; Agar Dilution method, Mueller Hinton Agar, 18 hours at 37° C. The method in brief:
as §1

In another test the test system is VRE C6487. It counts as cell-based, Enterococcus faecium. Conditions: VRE C6487; Agar Dilution method, Mueller Hinton Agar, 18 hours at 37° C. Summed up:
as §1

A further test deals with VRE C6488. It is filed as cell-based, Enterococcus faecium. Conditions: VRE C6488; Agar Dilution method, Mueller Hinton Agar, 18 hours at 37° C. The method in brief: as §1

For the molecule `CCOC(=O)C=C1CCN(c2ccc(N3C[C@H](CNC(C)=O)OC3=O)cc2F)CC1` [Compound 11, N-[[(5S)-3-[3-fluoro-4-(4-ethoxycarbonylmethylidene-piperidinyl)phenyl]-2-oxo-5-oxazolidinyl]methyl]acetamide], the “Minimum inhibition concentration (MIC)” value is 8 µg/mL (≈ 19.1 µM) in the test with CRSA C1062; 8 µg/mL (≈ 19.1 µM) in the test on CRSA C6043; 8 µg/mL (≈ 19.1 µM) in the test on MRSA C2207; 8 µg/mL (≈ 19.1 µM) in the test on MRSA C5100; 8 µg/mL (≈ 19.1 µM) in the test on MRSA C6068; 16 µg/mL (≈ 38.1 µM) in the test with MSSA C2214. Besides, the “Minimum inhibition concentration (MIC)” value turned out to be 16 µg/mL (≈ 38.1 µM) in the test on MSSA C7142; 8 µg/mL (≈ 19.1 µM) in the test with E. faecalis ATCC29212; 8 µg/mL (≈ 19.1 µM) with E. faecalis C6288; 8 µg/mL (≈ 19.1 µM) in the test on E. faecalis C6291; 8 µg/mL (≈ 19.1 µM) in the test on E. faecium C2252; 8 µg/mL (≈ 19.1 µM) in the test on E. faecium C6301. The “Minimum inhibition concentration (MIC)” value was 16 µg/mL (≈ 38.1 µM) in the test with S. aureus ATCC 29213; 2 µg/mL (≈ 4.77 µM) in the test with S. epidermidis ATCC12228; 8 µg/mL (≈ 19.1 µM) with S. epidermidis C2230; 4 µg/mL (≈ 9.54 µM) with S. epidermidis C2235; 2 µg/mL (≈ 4.77 µM) with S. pyogenes ATCC8668; 8 µg/mL (≈ 19.1 µM) with S. pyogenes C6003. Further, the “Minimum inhibition concentration (MIC)” value stood at 2 µg/mL (≈ 4.77 µM) in the test with S. pyogenes C6012, 8 µg/mL (≈ 19.1 µM) with VRE C6487 and 8 µg/mL (≈ 19.1 µM) in the test on VRE C6488.
`CON=C(C)C=C1CCN(c2ccc(N3C[C@H](CNC(C)=O)OC3=O)cc2F)CC1` [Compound 21, N-[[(5S)-3-[3-fluoro-4-(4-(2-methoxyiminopropylidene)-piperidinyl)phenyl]-2-oxo-5-oxazolidinyl]methyl]acetamide]: the “Minimum inhibition concentration (MIC)” value came out at 32 µg/mL (≈ 76.5 µM) in the test on CRSA C1062; 16 µg/mL (≈ 38.2 µM) with CRSA C6043; 16 µg/mL (≈ 38.2 µM) with MRSA C2207; 8 µg/mL (≈ 19.1 µM) in the test on MRSA C5100; 8 µg/mL (≈ 19.1 µM) with MRSA C6068; 16 µg/mL (≈ 38.2 µM) in the test on MSSA C2214. The “Minimum inhibition concentration (MIC)” value with MSSA C7142 stood at 16 µg/mL (≈ 38.2 µM); with E. faecalis ATCC29212, 16 µg/mL (≈ 38.2 µM); in the test on E. faecalis C6288, 8 µg/mL (≈ 19.1 µM); in the test with E. faecalis C6291, 8 µg/mL (≈ 19.1 µM); in the test on E. faecium C2252, 8 µg/mL (≈ 19.1 µM); in the test on E. faecium C6301, 8 µg/mL (≈ 19.1 µM). The “Minimum inhibition concentration (MIC)” value with S. aureus ATCC 29213 turned out to be 16 µg/mL (≈ 38.2 µM); in the test with S. epidermidis ATCC12228, 2 µg/mL (≈ 4.78 µM); with S. epidermidis C2230 it was 16 µg/mL (≈ 38.2 µM); with S. epidermidis C2235, 8 µg/mL (≈ 19.1 µM); in the test with S. pyogenes ATCC8668 it was 2 µg/mL (≈ 4.78 µM); in the test with S. pyogenes C6003 it was 8 µg/mL (≈ 19.1 µM). In addition, the “Minimum inhibition concentration (MIC)” value in the test with S. pyogenes C6012 came to 2 µg/mL (≈ 4.78 µM); in the test on VRE C6487 it was 4 µg/mL (≈ 9.56 µM); in the test on VRE C6488 it was 4 µg/mL (≈ 9.56 µM).
For the molecule `CC(=O)C=C1CCN(c2ccc(N3C[C@H](CNC(C)=O)OC3=O)cc2F)CC1` [Compound 12, N-[[(5S)-3-[3-fluoro-4-(4-methylcarbonylmethylidene-piperidinyl)phenyl]-2-oxo-5-oxazolidinyl]methyl]acetamide], the “Minimum inhibition concentration (MIC)” value worked out at 8 µg/mL (≈ 20.5 µM) in the test on CRSA C1062; 16 µg/mL (≈ 41.1 µM) in the test with CRSA C6043; 8 µg/mL (≈ 20.5 µM) with MRSA C2207; 8 µg/mL (≈ 20.5 µM) in the test with MRSA C5100; 16 µg/mL (≈ 41.1 µM) with MRSA C6068; 16 µg/mL (≈ 41.1 µM) with MSSA C2214. The “Minimum inhibition concentration (MIC)” value came to 16 µg/mL (≈ 41.1 µM) with MSSA C7142; 16 µg/mL (≈ 41.1 µM) in the test on E. faecalis ATCC29212; 16 µg/mL (≈ 41.1 µM) in the test on E. faecalis C6288; 16 µg/mL (≈ 41.1 µM) in the test with E. faecalis C6291; 8 µg/mL (≈ 20.5 µM) with E. faecium C2252; 8 µg/mL (≈ 20.5 µM) in the test on E. faecium C6301. For the same molecule, the “Minimum inhibition concentration (MIC)” value with S. aureus ATCC 29213 was found to be 8 µg/mL (≈ 20.5 µM); with S. epidermidis ATCC12228, 1 µg/mL (≈ 2.57 µM); with S. epidermidis C2230 it was 8 µg/mL (≈ 20.5 µM); with S. epidermidis C2235 it was 8 µg/mL (≈ 20.5 µM); with S. pyogenes ATCC8668, 8 µg/mL (≈ 20.5 µM); in the test on S. pyogenes C6003, 0.2 µg/mL (≈ 0.514 µM). For the same molecule, the “Minimum inhibition concentration (MIC)” value with S. pyogenes C6012 was found to be 16 µg/mL (≈ 41.1 µM); in the test on VRE C6487, 2 µg/mL (≈ 5.14 µM); in the test on VRE C6488, 8 µg/mL (≈ 20.5 µM).
With `CC(=O)NC[C@H]1CN(c2ccc(N3CCC(=CC=NO)CC3)c(F)c2)C(=O)O1` [Compound 18, N-[[(5S)-3-[3-fluoro-4-(4-(2-hydroxyiminoethylidene)-piperidinyl)phenyl]-2-oxo-5-oxazolidinyl]methyl]acetamide], the “Minimum inhibition concentration (MIC)” value in the test with CRSA C1062 came out at 8 µg/mL (≈ 20.5 µM); in the test with CRSA C6043, 8 µg/mL (≈ 20.5 µM); in the test with MRSA C2207 it was 8 µg/mL (≈ 20.5 µM); in the test with MRSA C5100, 4 µg/mL (≈ 10.2 µM); in the test with MRSA C6068 it was 4 µg/mL (≈ 10.2 µM); with MSSA C2214 it was 8 µg/mL (≈ 20.5 µM). For the same molecule, the “Minimum inhibition concentration (MIC)” value was found to be 8 µg/mL (≈ 20.5 µM) in the test with MSSA C7142; 8 µg/mL (≈ 20.5 µM) in the test with E. faecalis ATCC29212; 4 µg/mL (≈ 10.2 µM) in the test with E. faecalis C6288; 4 µg/mL (≈ 10.2 µM) in the test on E. faecalis C6291; 4 µg/mL (≈ 10.2 µM) in the test with E. faecium C2252; 4 µg/mL (≈ 10.2 µM) in the test on E. faecium C6301. Besides, the “Minimum inhibition concentration (MIC)” value in the test with S. aureus ATCC 29213 was found to be 8 µg/mL (≈ 20.5 µM); in the test on S. epidermidis ATCC12228, 1 µg/mL (≈ 2.56 µM); in the test on S. epidermidis C2230 it was 4 µg/mL (≈ 10.2 µM); with S. epidermidis C2235, 4 µg/mL (≈ 10.2 µM); with S. pyogenes ATCC8668, 2 µg/mL (≈ 5.12 µM); in the test with S. pyogenes C6003, 4 µg/mL (≈ 10.2 µM). Also, the “Minimum inhibition concentration (MIC)” value worked out at 1 µg/mL (≈ 2.56 µM) with S. pyogenes C6012, 4 µg/mL (≈ 10.2 µM) in the test with VRE C6487 and 4 µg/mL (≈ 10.2 µM) in the test with VRE C6488.
